{"source": "patent US6994981B2", "about": "“Modulators of paraptosis and related methods” (The Buck Institute, priority 2002, dated 2006)", "molecules": {"B1": {"name": "p35: caspase inhibitor (protein, UniProt P08160 1-299, looked up)", "Early 35 kDa protein": "MCVIFPVEIDVSQTIIRDCQVDKQTRELVYINKIMNTQLTKPVLMMFNISGPIRSVTRKNNNLRDRIKSKVDEQFDQLERDYSDQMDGFHDSIKYFKDEHYSVSCQNGSVLKSKFAKILKSHDYTDKKSIEAYEKYCLPKLVDERNDYYVAVCVLKPGFENGSNQVLSFEYNPIGNKVIVPFAHEINDTGLYEYDVVAYVDSVQFDGEQFEEFVQSLILPSSFKNSEKVLYYNEASKNKSMIYKALEFTTESSWGKSEKYNWKIFCNGFIYDKKSKVLYVKLHNVTSALNKNVILNTIK"}, "B2": {"name": "AIP-1: Alg-2 interacting protein 1, co-transfected with the IGFIR-IC construct (protein, UniProt Q8WUM4 2-868, looked up)", "Programmed cell death …": "ATFISVQLKKTSEVDLAKPLVKFIQQTYPSGGEEQAQYCRAAEELSKLRRAAVGRPLDKHEGALETLLRYYDQICSIEPKFPFSENQICLTFTWKDAFDKGSLFGGSVKLALASLGYEKSCVLFNCAALASQIAAEQNLDNDEGLKIAAKHYQFASGAFLHIKETVLSALSREPTVDISPDTVGTLSLIMLAQAQEVFFLKATRDKMKDAIIAKLANQAADYFGDAFKQCQYKDTLPKEVFPVLAAKHCIMQANAEYHQSILAKQQKKFGEEIARLQHAAELIKTVASRYDEYVNVKDFSDKINRALAAAKKDNDFIYHDRVPDLKDLDPIGKATLVKSTPVNVPISQKFTDLFEKMVPVSVQQSLAAYNQRKADLVNRSIAQMREATTLANGVLASLNLPAAIEDVSGDTVPQSILTKSRSVIEQGGIQTVDQLIKELPELLQRNREILDESLRLLDEEEATDNDLRAKFKERWQRTPSNELYKPLRAEGTNFRTVLDKAVQADGQVKECYQSHRDTIVLLCKPEPELNAAIPSANPAKTMQGSEVVNVLKSLLSNLDEVKKEREGLENDLKSVNFDMTSKFLTALAQDGVINEEALSVTELDRVYGGLTTKVQESLKKQEGLLKNIQVSHQEFSKMKQSNNEANLREEVLKNLATAYDNFVELVANLKEGTKFYNELTEILVRFQNKCSDIVFARKTERDELLKDLQQSIAREPSAPSIPTPAYQSSPAGGHAPTPPTPAPRTMPPTKPQPPARPPPPVLPANRAPSATAPSPVGAGTAAPAPSQTPGSAPPPQAQGPPYPTYPGYPGYCQMPMPMGYNPYAYGQYNMPYPPVYHQSPGQAPYPGPQQPSYPFPQPPQQSYYPQQ"}}, "key": {"[1]": {"test_system": "striatal, cortical, and hippocampal neurons", "experiment": "SP-induced cell death in primary striatal, cortical and hippocampal neurons, trypan blue viability and staining", "format": "cell-based, rat", "procedure": "Rat neuronal primary cell cultures were also used to assay for inducers and inhibitors of paraptosis. Briefly, primary striatal, cortical and hippocampal cultures were prepared from 17-day-old Sprague-Dawley rat embryos (B&K). The tissue was dissected, minced and trypsinized for five minutes using 0.25% trypsin (Cell Grow). After the addition of 10% horse serum (Life Technologies) to inhibit the trypsin, the cell suspension was triturated 15–20 times with a 10 ml syringe and centrifuged for five minutes at 800×g. The pellet was resuspended in MEM-PAK (UCSF Cell Culture facility), supplemented with 2.02 gm glucose, 2 mM GLUTAMAX™ (Life Technologies) and penicillin/streptomycin (100 U/ml). The suspension was filtered through a […] cell strainer and the final culture medium contained 5% horse serum. Subsequently, 3-4×10^5 cells per Cm^2 were seeded onto either poly-D-lysine precoated 8-well chamber slides (Becton-Dickson Labware) or 96 well plates precoated with […] of poly-D-lysine (Sigma) in water. After 30 minutes of incubation time, unattached cells were removed together with the medium and replaced with glucose enriched MEM-PAK plus 5% horse serum. The cultures were then incubated at 37° C. in 95% air 5% carbon dioxide with 95% humidity. Cultures were used for experiments between day 1 and day 7 when glial contamination was at a minimum.\nPrimary neuronal cells were prepared as described in Example I. SP (SIGMA) at a concentration of 0.1 nM–100 μM was added 24–48 hrs after seeding, in the presence of 2.5% horse serum. When the cultures were maintained for more than 5 days, 10 μM cytosine arabinoside was added for 24 hours, beginning 3 days after plating the cells. Viability was quantified by trypan blue staining of the total cell population.\nThe following compounds were added at the same time as SP in the indicated experiments: 5 nM L-732, 138; 1 nM L-733,060; 1 μg/ml Actinomycin D or 1 μg/ml Cycloheximide. All of these compounds were obtained from SIGMA. The caspase inhibitors zVAD.fmk and BAF were added at 50 μM and obtained from Enzyme System Products, Livermore, Calif.\nEither neuronal primary cultures or human embryonic kidney 293T cells were fixed with 4% paraformaldehyde and stained with 0.5 μg/ml DAPI (Molecular Probes) or Hoechst(SIGMA). […]\n(§1) The protein kinase inhibitors were added 30 min before SP exposure at the following concentrations: 10 μM Rp-8-Br-cAMPS (adenosin 3′,5′-cyclic monophosphorothioate, 8-bromo-, Rp-isomer, sodium salt) which is a PKA inhibitor; 50 nM Calphostin C, which is a PKC inhibitor; 10 μM PD 98059 which is a MAPKK (MEK) inhibitor. These compounds were obtained from Calbiochem. Viability was quantified by trypan blue staining of the total cell population."}, "[2]": {"test_system": "paraptosis induced by caspase 7, caspase 8 or caspase 9", "experiment": "Inhibition of paraptosis induced by caspases", "format": "cell-based", "procedure": "(§2) Test compounds were added to IGFIR-IC transfected 293T cells at the time of transfection."}, "[3]": {"test_system": "293T cells transfected with NK1R", "experiment": "SP-induced, NK1R-mediated cell death in 293T cells transfected with NK1R, trypan blue and staining", "format": "cell-based, human", "procedure": "(§3) Human embryonic kidney 293T cells were grown as described in Example I. Transient transfection was performed using Superfect (Qiagen) as described by the manufacturer. Briefly, 2×10^5 cells/well were seeded into 35 mm wells 16 hr prior to transfection. Superfect:DNA complexes were added at a 5 μl:2 μg ratio for 3 hr; then the medium was replaced and after 24 hr SP was added. At 24–48 hr after addition of SP cell death was quantified as follows: the media containing floating cells were collected and centrifuged 10 min at 2000×g, the pellet was resuspended in PBS/trypan blue and the cells were counted using a hematocytometer. When other compounds were used, they were added at the same time as SP: zVAD.fmk or BAF was added at 50 μM and obtained from Enzyme System Products, Livermore, Calif.\nBriefly, the method entailed cloning the full-length (1.2 kb) NK1R cDNA (Genbank Accession No. M31477) by RT-PCR from adult rat hippocampal RNA into the XbaI/EcoRI sites of the vector pcDNA3.1 (Invitrogen), using the following oligonucleotides: forward 5′[…] 3′ (SEQ ID NO:2); reverse 5′[…] 3′ (SEQ ID NO:3).\nCells were stained according to the manufacturer's instructions (Clontech). Briefly, cellswere washed with binding buffer and incubated with FITC-Annexin-V or EGFPAnnexin-V for 5–10 min and fixed with 4% paraformaldehyde.\nCells were fixed 10 min with 4% paraformaldehyde and stained according to the manufacturer's instructions (Promega).\nas §1"}, "[4]": {"test_system": "caspase-8 transfected cells", "experiment": "Apoptosis induced by over-expression of caspase-8 in 293T cells", "format": "cell-based, human", "settings": "caspase inhibitors at 50 μM", "procedure": "as §3"}, "paraptosis": {"test_system": "paraptosis", "settings": "cited from earlier work"}, "[5]": {"target": "neurokinin-1 receptor (NK1R) (Rattus norvegicus, UniProt P14600)", "sequence (P14600 whole entry)": "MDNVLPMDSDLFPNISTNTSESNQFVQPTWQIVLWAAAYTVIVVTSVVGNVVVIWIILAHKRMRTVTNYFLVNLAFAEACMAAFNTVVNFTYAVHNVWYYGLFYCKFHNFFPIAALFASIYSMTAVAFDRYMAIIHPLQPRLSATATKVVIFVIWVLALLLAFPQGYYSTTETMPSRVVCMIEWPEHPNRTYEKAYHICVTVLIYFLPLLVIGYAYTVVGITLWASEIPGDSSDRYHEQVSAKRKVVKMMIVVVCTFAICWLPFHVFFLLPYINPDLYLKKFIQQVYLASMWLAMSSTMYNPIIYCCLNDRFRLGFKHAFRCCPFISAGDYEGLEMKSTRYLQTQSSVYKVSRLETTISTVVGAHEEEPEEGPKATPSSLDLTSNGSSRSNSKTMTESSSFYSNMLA", "settings": "cited from earlier work"}, "[6]": {"test_system": "IGFIR-IC transfected 293T cells", "experiment": "Inhibition of IGFIR-IC induced paraptosis in transfected 293T cells, LDH assay", "format": "cell-based, human", "procedure": "Paraptosis was induced in 293T cells by expressing the intracellular domain of the insulin-like growth factor I receptor (IGFIR-IC) in these cells using transient transfection as described above.\nas §2\nThe TRAF2 dominant negative mutant contains a deletion of the amino terminal 271 amino acids of the protein. The ratio of IGFIR-IC:AIP1 and IGFIR-IC:TRAF2DN was 1:3. […] Antisense oligonucleotide constructs for JNK1 or JNK2 (50–100 nM) were transfected into 293T cells one day before transfection with the IGFIR-IC construct. For all inhibition assays, cell viability was measured using the LDH assay."}, "ERK-1/2": {"test_system": "ERK-1/2", "experiment": "Western blot of ERK-1/2 phosphorylation in 293T cells expressing NK1R", "format": "cell-based, human", "settings": "10 μM", "procedure": "For the transfected 293T cells, cells were washed with cold PBS after incubation with SP the time indicate and homogenized on lysis buffer (150 mM NaCl, 1% Triton X-100, 50 mM Tris HCL pH8.0). Cytoplasmic extracts were collected after 10 min centrifugation at 14,000 rcf. Total amount of protein was quantified by Bradford assay and electrophoresis of equal amounts of total protein was performed on SDS-polyacrylamide gels. Separated proteins were transferred to polyvinylidene fluoride membranes at 4° C. for Western blot analysis. Membranes were probed with a 1:1000 dilution of anti-ERK-1/2 or anti phospho-ERK-1/2 (BioSource). The blots were incubated in a horseradish peroxidase coupled secondary antibody for 1 h followed by enhanced chemiluminescence detection of the proteins with […]™ ECL detection (Amersham, Arlington Heights, Ill.). For striatal neurons, total ERK-1/2 was immunoprecipitated using superparamagnetic Microbeads conjugated to protein A, following manufacture's instructions (MACS, Miltenyi Biotec), and then developed by Western blot against either anti-ERK-1/2 or anti phospho-ERK-1/2."}, "SP-induced paraptosis": {"test_system": "SP-induced paraptosis", "experiment": "Inhibition of SP-induced paraptosis, cells not specified", "format": "cell-based", "settings": "concentration not given"}}, "note": "No end group written: not given here."}
{"molecule": "COC(=O)CC(NC(=O)OC(C)(C)C)C(=O)CF", "note": "(stereo not drawn) [BAF, Box-aspartyl.fmk]", "values": [{"measurement": "effect on SP-induced cell death in neurons", "setting": "[1]; caspase inhibitors at 50 μM", "value": "not inhibited"}, {"measurement": "inhibition of paraptosis induction by caspase-7 and caspase-8", "setting": "[2]", "value": "subject to inhibition"}, {"measurement": "effect on NK1R-mediated cell death in 293T cells", "setting": "[3]; caspase inhibitors at 50 μM", "value": "lack of effect"}, {"measurement": "effect on apoptosis induced by over-expression of caspase-8", "setting": "[4]", "value": "completely abolished"}, {"measurement": "effect of caspase inhibitors on paraptosis", "setting": "paraptosis", "value": "lack of effect"}]}
{"molecule": "SP 6–11: truncated form of SP containing amino acids 6 through 11 of the SP polypeptide (QFFGLM; ends and bridges not checked)", "values": [{"measurement": "induction of cell death by NK1R agonists", "setting": "[1]; compared with SP", "value": "able to induce cell death as well as SP"}, {"measurement": "affinity for NK1R", "setting": "[5]", "value": "good affinity"}]}
{"molecule": "COc1cccc(-c2cc(=O)c3ccccc3o2)c1N", "note": "[PD 98059]", "values": [{"measurement": "effect on neuronal cell death in response to SP", "setting": "[1]; added 30 min before SP: 10 μM PD 98059, 50 nM Calphostin C, 10 μM Rp-8-Br-cAMPS", "value": "completely blocked"}, {"measurement": "effect on non-neuronal NK1R-mediated pcd", "setting": "[3]; 10 μM", "value": "inhibited"}, {"measurement": "effect on IGFIR-induced paraptosis", "setting": "[6]; concentration not given", "value": "not blocked"}, {"measurement": "effect on phosphorylation of ERK-1/2", "setting": "ERK-1/2", "value": "effectively reduced"}]}
{"molecule": "B1", "values": [{"measurement": "inhibition of paraptosis induction by caspase-7 and caspase-8", "setting": "[2]", "value": "subject to inhibition"}, {"measurement": "effect of caspase inhibitors on paraptosis", "setting": "paraptosis", "value": "lack of effect"}]}
{"molecule": "B2", "values": [{"measurement": "inhibition of IGFIR-IC induced paraptosis", "setting": "[6]; co-transfected with the IGFIR-IC construct, ratio 1:3", "value": "able to inhibit IGFIR-IC induced paraptosis"}, {"measurement": "effect on SP-induced paraptosis", "setting": "SP-induced paraptosis", "value": "can be inhibited"}]}
